In data set [1] the test system is rats. Description: Seizure and abnormal behavior of LY451646 and AMPA in rats. The class given is in vivo, rat. Conditions: i.p.
A further data set has as its system BDNF and Gadd45b mRNA. Nature of the data set: AMPA-induced BDNF and Gadd45b mRNA after 14 days of dosing. Conditions: pre-administration 0.3 mg/kg, p.o. for 14 days. In kind it is in vivo, mouse. Here is the method:
Male ICR mice at 7 weeks old were treated with orally administered vehicle or TAK-653. For the repeated dose study, TAK-653 (0.3 mg/kg, p.o.) or vehicle was administered for 14 days. AMPA at designated doses was intravenously (i.v.) administered 1 h after oral administration. Three hours after i.v. administration of AMPA, right hippocampi were isolated from the mice by euthanasia and acutely frozen on dry ice. Total RNA from mouse hippocampus was extracted with RNeasy 96 kit (Qiagen, Hilden, Germany). Reverse transcription of total RNA was performed using the High-capacity cDNA Archive kit (Life Technologies, Carlsbad, CA). Real-time quantitative PCR was carried out using an ABI PRISM 7900HT sequence detection system (Life Technologies) using PCR reagents (Nippon Gene Co. Limited, Toyama, Japan). Primers used for BDNF analyses were as follows: BDNF forward primer, 5’-[…]-3’; BDNF reverse primer, 5’-[…]-3’; BDNF TaqMan probe, 5’-FAM- […]-TAMRA-3’. Primers used for Gadd45b analyses were as follows: Gadd45b forward primer, 5’-[…]-3’; Gadd45b reverse primer, 5’-GCGCCAGCCTCTGCAT-3’; Gadd45b TaqMan probe, 5’'-FAM-[…]-MGB-3’. […] Concentrations of GAPDH mRNA were used for internal controls and relative BDNF or Gadd45b mRNA/GAPDH mRNA levels were calculated.

Data set [2] concerns rats. Description: 5-choice serial reaction time task (5CSRTT). Conditions: 0.3 mg/kg, p.o. In kind it is in vivo, rat. Here is the method: The experiment consists of two sessions, training and testing session. The training session was initiated with 7-week-old of male Long-Evans rats, and the testing session was conducted at 12-13 months old. Throughout the experimental period, food was restricted to 80-85% of their free-feeding body weight. The training and testing were conducted using four operant chambers enclosed in sound-attenuating boxes (Med Associates Inc., St Albans, VT). Each chamber contained a curved wall with five contiguous apertures. Food pellets were supplied automatically into a magazine located in the opposite wall of the five contiguous apertures in the chamber, and a photocell beam was used to detect head entries into the magazine. In the training session, a pellet was delivered into the magazine at the start of each session to facilitate initiation of the first trial. After a 5 s-intertrial interval (ITI), a light stimulus was presented in one of the five apertures followed by the 5 s-limited hold without light stimulus. […] Rats were required to nose-poke in the illuminated aperture. […] Incorrect responses (responses in non-illuminated apertures), omissions (failure to respond during the limited hold) and premature responses (responses occurring prior to the presentation of the stimulus) were punished by a 5 s-timeout periods with extinction of the house light and no delivery of food. Accuracy was calculated as the number of correct responses / (number of correct responses + number of incorrect responses) × 100. Each session lasted for 35 min or until 100 trials were completed. Rats were trained until they achieved criterion performance (>75% accuracy and <20 omissions) over 3 consecutive days. In the testing session, the duration of light stimuli on an aperture was set to 0.5 s with a variable ITI schedule (4, 5, 7, or 10 s). Equal numbers of each ITI were randomly presented over 100 trials. TAK-653 at 0.3 mg/kg or vehicle was orally administered 2 h prior to testing in a cross-over design. Data were indicated as the mean ± SEM of number of correct responses, omissions, and premature responses. For sub-population analyses, a median split of the population was undertaken based on their correct response scores under vehicle treatment to ensure no interaction with performance changes across the study (Robinson, 2012).

Each structure is given as a SMILES string.

`Cc1onc(O)c1CC(N)C(=O)O` (stereo not drawn) [AMPA, alpha-amino-3-hydroxy-5-methyl-4-isoxazole-propionic acid]: the Abnormal behavior result in the data set on rats [1] (10 mg/kg) is “abnormal behavior such as head turning”. Also, the Seizure result in the data set on rats [1] (30 mg/kg) was “induced seizure”.

In the case of `CC1=CN2CCS(=O)(=O)N=C2C(c2ccc(OC3CCCCC3)cc2)=N1` [TAK-653, 9-[4-(Cyclohexyloxy)phenyl]-7-methyl-3,4-dihydropyrazino[2,1-c][1,2,4]thiadiazine 2,2-dioxide], the “AMPA-induced BDNF and Gadd45b mRNA expression in hippocampus” value in the data set on BDNF and Gadd45b mRNA is listed as “did not affect”. The Premature responses result with rats [2] is on record as “did not affect”. For the same compound, the “5CSRTT performance in the whole population” value in the data set on rats [2] (2 h prior to the trial) is “no significant improvement”. In addition, in the data set with rats [2] (median split), the “Correct responses in the poor performing rats” value is listed as “significantly increased” and the “Omissions in the poor performing rats” value is on record as “decreased”.

Values taken from PMC8282797, “Strictly regulated agonist-dependent activation of AMPA-R is the key characteristic of TAK-653 for robust synaptic responses and cognitive improvement” (Scientific Reports, 2021).
